The values that follow are results of earlier work, collected in paper PMC2709231 (European Journal of Nuclear Medicine and Molecular Imaging, 2009).

For this data set the following is noted: human, in vivo.

As to “^90Y-DTPA-(D)Glu^1-(Glu)5-Ala-Tyr-Gly-Trp-Met-Asp-Phe-NH2 [^90Y-DTPA-DGlu^1-minigastrin]”, the “Side effects of radionuclide therapy” value is “serious side effects, including renal insufficiency and bone marrow toxicity”.
